Experimental data reported in patent US20060269621A1, “Novel therapeutic extracts and molecules for degenerative conditions” (Avestha Gengraine Technologies Pvt.Ltd., priority 2003, published 2006).

What was measured:
3T3-L1 adipocytes [1] = assay: Standardization / validation of [3H]-glucose uptake 3T3-L1 assay with insulin and glitazone; type: cell-based; details: for [3H]-glucose uptake with insulin: in cpm (unit assumed); for Counts with insulin: insulin alone control
Protocol: In the first set of assays (insulin control and the first 9 samples) cells were grown in 96 well plates, and assayed for 3H-deoxyglucose uptake. Briefly cells were treated with plant extract overnight and immediately before the assay got washed with Krebs-Ringer-HEPES Buffer [20 mM HEPES, pH 7.4, 136 mM NaCl, 4.7 mM KCl, 1.5 mM MgSO4] at 37° C. for 30 minutes and then treated with insulin. Glucose uptake reaction was initiated by adding 0.1 mM deoxy-glucose containing deoxy-tritiated-glucose containing 12.2 kBq/mL. After 30 minutes of 37° C. incubation, the reaction was terminated by adding 40 uM cytochalasin-B. Cells were washed 3× with ice cold KRH buffer and solubilized with 100 μl of 10% Triton-X with Ca/Mg free PBS. Radioactivity incorporated into cells was measured on a top count microplate scintillation counter. Results are being interpreted as mean±SD of counts per minute.
As the basal counts were low, the assay design was changed to a 24-well format and the cell numbers increased from 100,000 cells per well to 2 million cells per well.
The two controls in this experiment were: (a) [^3H]-deoxyglucose uptake by cells in the absence of both insulin and plant extracts, and (b) [^3H]-deoxyglucose uptake by cells in the presence of insulin and absence of plant extracts.

3T3-L1 adipocytes [2] = assay: as above; type: cell-based; details: 48 hrs

Compound | Counts per minute (3T3-L1 adipocytes [1]; Glitazone 150 μg, 48 hrs) [Counts per minute] | Counts per minute (3T3-L1 adipocytes [2]; Glitazone 60 μg) [Counts per minute] | Counts per minute (3T3-L1 adipocytes [2]; Glitazone 300 μg) [Counts per minute] | [3H]-glucose uptake with insulin (3T3-L1 adipocytes [1]; 100,000 cells/well, Insulin 1 nM) | [3H]-glucose uptake with insulin (3T3-L1 adipocytes [1]; 100,000 cells/well, Insulin 10 nM) | [3H]-glucose uptake with insulin (3T3-L1 adipocytes [1]; 100,000 cells/well, Insulin 100 nM) | [3H]-glucose uptake with insulin (3T3-L1 adipocytes [1]; 2,000,000 cells/well, Insulin 10 nM) | [3H]-glucose uptake with insulin (3T3-L1 adipocytes [1]; 2,000,000 cells/well, Insulin 25 nM) | [3H]-glucose uptake with insulin (3T3-L1 adipocytes [1]; 2,000,000 cells/well, Insulin 100 nM) | Counts per minute (3T3-L1 adipocytes [1]; Insulin 25 nM, 15 min) [Counts per minute] | Counts per minute (3T3-L1 adipocytes [1]; Insulin 25 nM, 30 min) [Counts per minute] | Counts per minute (3T3-L1 adipocytes [1]; Insulin 25 nM, 60 min) [Counts per minute] | [3H]-deoxyglucose uptake, Counts per minute (3T3-L1 adipocytes [1]; control: cells + insulin, no plant extract) [Counts per minute] | Counts with insulin (3T3-L1 adipocytes [1]; Table 15, first of two value columns) [Counts per minute] | Counts with insulin (3T3-L1 adipocytes [1]; Table 15, second of two value columns) [Counts per minute]
O=C1NC(=O)C(Cc2ccc(O)cc2)S1 (stereo not drawn) [Glitazone] | 15900.4 | 7886 | 47971.9 | – | – | – | – | – | – | – | – | – | – | – | –
Insulin | – | – | – | 60.5 | 502 | 1850 | 36562 | 38538 | 55258 | 48026.7 | 24699.9 | 28103.3 | 36561 | 33065.1 | 32352.28
